Source: the NIST ThermoML archive (doi:10.1016/j.jct.2019.06.026)
Numbers after ± are expanded uncertainties. Each block holds one molecule with its values, some of them ahead of it.

Details: Liquid, Ebulliometric method (Recirculating still)

vapor or sublimation pressure (381.95 K): 101.3 ± 3.6 kPa
SMILES: OCC(F)(F)C(F)F [2,2,3,3-tetrafluoro-1-propanol]

vapor or sublimation pressure (471.2 K): 101.3 ± 3.6 kPa
SMILES: CNC=O [N-methylformamide]

vapor or sublimation pressure (476.05 K): 101.3 ± 3.6 kPa
SMILES: CN1CCCC1=O [N-methylpyrrolidone]

vapor or sublimation pressure (426.05 K): 101.3 ± 3.6 kPa
SMILES: CN(C)C=O [dimethylformamide]
